In general, AUC(0-t) refers to the area under the concentration-time curve up to a stated or last time point. Read a high AUC(0-t) as high exposure. The half-life is how long it takes for the measured level to halve. A word on the IC50: it is the midpoint of a concentration-inhibition curve. Lower therefore signals inhibition by little substance.

The record followed here is patent US9399637B2, “Substituted heteroaryl compounds and methods of use” (Calitor Sciences, LLC, priority 2014, dated 2016).

Data set [1] in a line: Pharmacokinetics after intravenous and oral administration in rats. The class given is in vivo. To be noted: iv dosing, 1 mg/kg; for AUC(0-t) / half-life / Vd: rat, plasma; for Vd: read-out: Vss. On the procedure: The LC/MS/MS system used in the analysis consists of an Agilent 1200 Series vacuum degasser, binary pump, well-plate autosampler, thermostatted column compartment, the Agilent G6430 Triple Quadrupole Mass Spectrometer with an electrosprayionization (ESI) source. Quantitative analysis was carried out using MRM mode. The parameters for MRM transitions are in the Table A.
An Agilent XDB-C18, 2.1×30 mm, 3.5 μM column was used for the analysis. 5 μL of the samples were injected. Analysis condition: The mobile phase was 0.1% formic acid in water (A) and 0.1% formic acid in methanol (B). The flow rate was 0.4 mL/min. And the gradient of Mobile phase was in the Table B.
Alternatively, an Agilent 6330 series LC/MS/MS spectrometer equipped with G1312A binary pumps, a G1367A autosampler and a G1314C UV detector were used in the analysis. An ESI source was used on the LC/MS/MS spectrometer. The analysis was done in positive ion mode as appropriate and the MRM transition for each analyte was optimized using standard solution. A Capcell MP-C18 100×4.6 mm I.D., […] column (Phenomenex, Torrance, Calif., USA) was used during the analysis. The mobile phase was 5 mM ammonia acetate, 0.1% MeOH in water (A): 5 mM ammonia acetate, 0.1% MeOH in acetonitrile (B) (70:30, v/v). The flow rate was 0.6 mL/min. Column was maintained at ambient temperature. 20 μL of the samples were injected.
The compounds disclosed herein are assessed in pharmacokinetic studies in mice, rats, dogs or monkeys. The compounds are administered as a water solution, 2% HPMC+1% TWEEN®80 in water solution, 5% DMSO+5% solutol in saline, 4% MC suspension or capsule. For the intravenous administration, the animals are generally given at 1 or 2 mg/kg dose. For the oral (p.o.) dosing, mice and rats are generally given 5 or 10 mg/kg dose, and dogs and monkeys are generally given 10 mg/kg dose. The blood samples (0.3 mL) are drawn at 0.25, 0.5, 1.0, 2.0, 3.0, 4.0, 6.0, 8.0, 12 and 24 h time points or 0.083, 0.25, 0.5, 1.0, 2.0, 4.0, 6.0, 8.0 and 24 h time points and centrifuged at 3,000 or 4000 rpm for 2 to 10 min. The plasma solutions are collected, and stored at −20° C. or −70° C. until analyzed by LC/MS/MS as described above.

Data set [2] has as its target T1, JAK2 (h) (Homo sapiens, UniProt O60674).
T1 construct: purchased Millipore UK Ltd (assays run there as a service)
In words: JAK2 kinase assay. The class given is biochemical. Here is the method: (§1) Kinase assays can be performed by measurement of incorporation of γ-^33P ATP into immobilized myelin basic protein (MBP). High binding white 384 well plates (Greiner) are coated with MBP (Sigma #M-1891) by incubation of 60 μL/well of 20 μg/mL MBP in Tris-buffered saline (TBS; 50 mM Tris pH 8.0, 138 mM NaCl, 2.7 mM KCl) for 24 h at 4° C. Plates are washed 3× with 100 μL TBS. Kinase reactions are carried out in a total volume of 34 μL in kinase buffer (5 mM Hepes pH 7.6, 15 mM NaCl, 0.01% bovine gamma globulin (Sigma #I-5506), 10 mM MgCl2, 1 mM DTT, 0.02% TritonX-100). Compound dilutions are performed in DMSO and added to assay wells to a final DMSO concentration of 1%. Each data point is measured in duplicate, and at least two duplicate assays are performed for each individual compound determination. Enzyme is added to final concentrations of 10 nM or 20 nM, for example. A mixture of unlabeled ATP and γ-^33P ATP is added to start the reaction (2×10^6 cpm of γ-^33P ATP per well (3000 Ci/mmole) and 10 μM unlabeled ATP, typically. The reactions are carried out for 1 h at room temperature with shaking Plates are washed 7× with TBS, followed by the addition of 50 μL/well scintillation fluid (Wallac). Plates are read using a Wallac Trilux counter. This is only one format of such assays; various other formats are possible, as known to one skilled in the art.
(§2) The above assay procedure can be used to determine the IC50 for inhibition and/or the inhibition constant, Ki. The IC50 is defined as the concentration of compound required to reduce the enzyme activity by 50% under the condition of the assay. The IC50 value is estimated by preparing a 10 point curve using a ½ log dilution series (for example, a typical curve may be prepared using the following compound concentrations: 3 μM, 1 μM, 0.3 μM, 0.1 μM, 0.03 μM, 0.01 μM, 0.003 μM, 0.001 μM, 0.0003 μM and 0 μM).
(specific activity approx. 500 cpm/pmol, concentration as required).
(§3) The kinase assays described herein were performed at Millipore UK Ltd, Dundee Technology Park, Dundee DD2 1SW, UK.

Data set [3] deals with T2, JAK1 (h) (Homo sapiens, UniProt P23458).
T2 construct: purchased Millipore UK Ltd (assays run there as a service)
T2 sequence (P23458 whole entry): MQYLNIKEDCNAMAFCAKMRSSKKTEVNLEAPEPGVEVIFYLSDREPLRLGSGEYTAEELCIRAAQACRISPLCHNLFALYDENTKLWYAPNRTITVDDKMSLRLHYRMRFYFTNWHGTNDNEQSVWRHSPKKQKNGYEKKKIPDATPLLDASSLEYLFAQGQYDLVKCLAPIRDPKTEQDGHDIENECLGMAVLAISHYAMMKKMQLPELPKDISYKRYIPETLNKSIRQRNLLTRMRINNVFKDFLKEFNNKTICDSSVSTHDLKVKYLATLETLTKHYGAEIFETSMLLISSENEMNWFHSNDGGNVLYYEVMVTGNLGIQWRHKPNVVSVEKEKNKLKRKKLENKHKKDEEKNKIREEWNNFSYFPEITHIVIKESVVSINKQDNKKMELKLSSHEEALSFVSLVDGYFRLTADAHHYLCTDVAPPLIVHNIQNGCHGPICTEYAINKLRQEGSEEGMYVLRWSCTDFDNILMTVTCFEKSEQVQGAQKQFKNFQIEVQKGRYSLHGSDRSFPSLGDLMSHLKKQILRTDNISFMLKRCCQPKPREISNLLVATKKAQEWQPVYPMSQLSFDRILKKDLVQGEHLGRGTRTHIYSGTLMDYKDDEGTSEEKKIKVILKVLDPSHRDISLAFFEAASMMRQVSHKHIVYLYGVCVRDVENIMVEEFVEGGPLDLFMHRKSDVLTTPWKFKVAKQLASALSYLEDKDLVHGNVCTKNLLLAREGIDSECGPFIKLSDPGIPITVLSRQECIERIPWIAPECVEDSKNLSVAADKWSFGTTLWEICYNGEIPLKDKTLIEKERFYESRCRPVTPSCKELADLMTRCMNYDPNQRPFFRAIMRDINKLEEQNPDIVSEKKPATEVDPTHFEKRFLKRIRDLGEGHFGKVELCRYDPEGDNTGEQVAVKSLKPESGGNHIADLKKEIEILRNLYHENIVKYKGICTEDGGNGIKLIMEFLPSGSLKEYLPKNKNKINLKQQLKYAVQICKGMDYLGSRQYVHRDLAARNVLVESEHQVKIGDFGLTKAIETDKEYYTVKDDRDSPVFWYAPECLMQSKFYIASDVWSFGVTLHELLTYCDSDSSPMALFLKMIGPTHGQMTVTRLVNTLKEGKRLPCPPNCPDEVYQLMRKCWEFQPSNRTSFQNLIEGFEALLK
In words: JAK1 kinase assay. The format is biochemical. Here is the method:
as §1, §2
JAK1 (h) is incubated with 20 mM Tris/HCl pH 7.5, 0.2 mM EDTA, 500 μM […], 10 mM MgAcetate and [γ-^33P-ATP] (specific activity approx. 500 cpm/pmol, concentration as required).
as §3

T1 sequence (O60674 whole entry): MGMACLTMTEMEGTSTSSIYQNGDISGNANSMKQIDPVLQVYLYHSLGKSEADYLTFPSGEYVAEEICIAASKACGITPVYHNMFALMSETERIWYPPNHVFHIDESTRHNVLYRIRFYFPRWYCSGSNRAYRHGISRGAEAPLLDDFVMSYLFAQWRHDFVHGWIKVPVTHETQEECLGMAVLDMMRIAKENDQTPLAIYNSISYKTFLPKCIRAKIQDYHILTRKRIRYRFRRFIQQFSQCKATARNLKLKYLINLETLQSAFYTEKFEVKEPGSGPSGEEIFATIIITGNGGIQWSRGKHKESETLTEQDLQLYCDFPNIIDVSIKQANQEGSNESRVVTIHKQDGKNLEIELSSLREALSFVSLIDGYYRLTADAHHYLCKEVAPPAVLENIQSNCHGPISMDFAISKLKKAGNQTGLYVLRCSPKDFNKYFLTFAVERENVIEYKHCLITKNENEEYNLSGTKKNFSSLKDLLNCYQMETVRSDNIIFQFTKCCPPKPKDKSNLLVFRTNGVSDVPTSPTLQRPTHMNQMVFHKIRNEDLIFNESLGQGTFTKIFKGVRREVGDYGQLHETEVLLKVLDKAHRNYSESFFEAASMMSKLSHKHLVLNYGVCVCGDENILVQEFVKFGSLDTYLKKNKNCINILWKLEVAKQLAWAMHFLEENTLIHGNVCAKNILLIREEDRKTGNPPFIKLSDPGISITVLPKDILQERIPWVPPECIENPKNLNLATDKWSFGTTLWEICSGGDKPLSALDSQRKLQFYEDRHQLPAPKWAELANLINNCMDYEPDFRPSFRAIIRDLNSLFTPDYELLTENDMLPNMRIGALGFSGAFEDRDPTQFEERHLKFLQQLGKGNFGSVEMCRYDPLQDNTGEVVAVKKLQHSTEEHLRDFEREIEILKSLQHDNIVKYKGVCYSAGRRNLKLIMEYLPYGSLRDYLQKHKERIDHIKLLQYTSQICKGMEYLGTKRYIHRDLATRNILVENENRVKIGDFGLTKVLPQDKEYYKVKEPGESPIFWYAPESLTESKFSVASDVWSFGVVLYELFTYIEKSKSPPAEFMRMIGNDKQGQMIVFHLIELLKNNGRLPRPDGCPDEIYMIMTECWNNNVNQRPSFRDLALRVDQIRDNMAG

In the case of `Cc1c2ccc(Nc3ncc(Cl)c(NC4CC5CN(C(=O)CC#N)CC5C4)n3)cc2nn1C` (stereo not drawn) [Ex. 4, 3-(5-((5-chloro-2-((2,3-dimethyl-2H-indazol-6-yl)amino)pyrimidin-4-yl)amino)hexahydrocyclopenta[c]pyrrol-2(1H)-yl)-3-oxopropanenitrile], in data set [1], the Cl/F was 36.2 mL/min/kg, the AUC(0-t) came to 458 ng·h/mL, the half-life was 1.36 h and the Vd was determined as 1.44 L/kg. Further, 9 nM corresponded to half-maximal inhibition in data set [2] (IC50). Also, the IC50 in data set [3] came out at 1 nM.

As to `CC(=O)N1CCC2(CCC(Nc3nc(Nc4ccc5c(C)n(C)nc5c4)ncc3Cl)CC2)CC1` [Ex. 7, 1-(9-((5-chloro-2-((2,3-dimethyl-2H-indazol-6-yl)amino)pyrimidin-4-yl)amino)-3-azaspiro[5.5]undecan-3-yl)ethanone], in data set [1], the Cl/F was 24.5 mL/min/kg, the AUC(0-t) stood at 688 ng·h/mL, the half-life is 0.85 h and the Vd came to 1.68 L/kg. Moreover, 2 nM corresponded to half-maximal inhibition in data set [2] (IC50). Moreover, the IC50 in data set [3] was 0.9 nM.
